Assay results published in patent US12239646B2, “Cancer diagnostic and treatment” (DANA-FARBER CANCER INSTITUTE, INC., priority 2017, dated 2025).
Entries after “also recorded” stand apart in the source; their conditions may differ. Read-outs that look alike come from different tables or passages of the source. Each block holds one molecule with its values, some of them ahead of it.

Columns and labels:
[1] = system: F. nucleatum strains isolated from COCA36 primary tumor and derived xenografts; assay: Antibiotic sensitivity testing (E-test) of clinical F. nucleatum isolates; format: cell-based, Fusobacterium nucleatum; conditions: for MIC: Fusobacterium nucleatum
Procedure: FIG. 14: Antibiotic sensitivity testing (E-test) of clinical F. nucleatum isolates. E-test on F. nucleatum strains isolated from COCA36 primary tumor and derived xenografts. All E-tests were carried out in triplicate on both FAA agar. The antibiotics tested were metronidazole (MZ), cefoxitin (FX) and imipenem (IP). All F. nucleatum strains tested were sensitive to cefoxitin and metronidazole in vitro: test range was 0.016 to 256 ug/ml. […] The F. nucleatum strains tested were resistant/hetero-resistant to imipenem in vitro.
A 1 McFarland solution, in TSB, was prepared from Fusobacterium strains grown for 24-48 hours on FAA under anaerobic conditions. Using a sterile cotton swab, each Fusobacterium strain were inoculated onto antibiotic free blood agar (FAA) and E-test strip (bioMérieux) for Metronidazole (MZ), Clindamycin (CM), Cefoxitin (FX) and Imipenem (IP) were incubated for up to 72 hours and sensitivity checked after 48 hours. Each sensitivity assay was conducted in triplicate. An FAA blood plate inoculated with each Fusobacterium strain, but without the E-test strip, was used as a growth control.

[2] = system: Fusobacterium-positive PDX tumors (COCA36); assay: In vivo metronidazole trial, tumor volume of Fusobacterium-positive PDX; design: species or system nude mice (Nu/Nu); conditions: 100 mg/kg/day oral gavage, approximately 3 weeks, vs vehicle; p=0.0005
Procedure: Animals bearing tumors (with volumes <250 mm^3) were randomized into statistically identical cohorts and treated with 100 mg/kg/day of metronidazole (Sigma Aldrich, USA), (suspension in 0.5% methylcellulose) or with the vehicle alone (0.5% methylcellulose) by oral gavage, daily, for approximately 3 weeks.
(§1) Nu/nu mice were raised in the specific-pathogen-free (SPF) conditions with autoclaved food and water. For both patient and HT-29 cell derived xenografts, tumor size was measured by caliper every Monday, Wednesday and Friday each week. Tumor volume was calculated using the formula: Volume=0.5×L×W^2 and growth rate was measured by calculating the percentage increase in volume. Tumor measurements were carried out in a blinded approach. Mouse body weight was recorded every 3 to 7 days. Mice were euthanized when the tumor diameter reached 2 cm or following the 3 weeks of drug treatment. Tissues were cryopreserved in Bambanker cell freezing media (Wako Chemicals USA) or snap frozen in liquid nitrogen and stored at −80° C. PDX experiments were performed with 22 (untreated group) and 24 (treated group) mice at timepoint zero, over three independent trials. HT-29 derived xenograft experiments were performed with 20 (untreated group) and 19 (treated group) mice at timepoint zero, over two independent trials. […]

[3] = system: Fusobacterium-free xenografts derived from HT-29 colon adenocarcinoma cells; assay: In vivo metronidazole trial, Fusobacterium-free HT-29 cell line xenograft; design: species or system nude mice (Nu/Nu); conditions: 100 mg/kg/day oral gavage, approximately 3 weeks, vs vehicle; p>0.05 at all timepoints
Procedure: For HT-29 cell line xenograft experiments, approximately 1×10^6 HT29 cells were suspended in PBS, mixed 1:1 with Matrigel (BD Biosciences), and injected subcutaneously into the flanks of nude mice (Nu/Nu; Taconic) in a final volume of 100 μL. Following 10-14 days post implantation, mice were randomized into statistically identical cohorts and treated with 100 mg/kg/day of metronidazole (suspension in 0.5% methylcellulose) or with vehicle alone by oral gavage daily for approximately 3 weeks.
as §1, with “trials.” for “trials. HT-29 derived xenograft experiments were performed with 20 (untreated group) and 19 (treated group) mice at timepoint zero, over two independent trials.”

Fusobacterium = assay: Fusobacterium-targeted qPCR on PDX tissue after treatment; format: in vivo, Fusobacterium species in PDX (COCA36) in Nu/Nu mice; conditions: PDX COCA36, metronidazole vs vehicle; p=0.002
Procedure: A custom TaqMan primer/probe set was used to amplify Fusobacterium species DNA (Integrated DNA technologies, CA) as previously described (28). The cycle threshold (Ct) values for Fusobacterium species were normalized to the amounts of human genomic DNA in each reaction by using a primer and probe set for the prostaglandin transporter (PGT) reference gene, and the fold difference (2^−ΔCt) in Fusobacterium load in tumor tissue was calculated as described before (8). Each reaction contained 100 ng of genomic DNA and was assayed in triplicate in 20 μL reactions containing 1× final concentration TaqMan Universal Master Mix (Applied Biosystems) and each TaqMan Gene Expression Assay (Applied Biosystems), in a 96-well optical PCR plate. Amplification and detection of DNA was performed with the ABI 7300 Real-Time PCR System (Applied Biosystems) using the following reaction conditions: 10 min at 95° C. and 42 cycles of 15 s at 95° C. and 1 min at 60° C. Cycle thresholding (Ct) was calculated using the automated settings (Applied Biosystems). The primer and probe sequences for each TaqMan Gene Expression Assay were as follows (SEQ ID. 1-6): Fusobacterium species forward primer, 5′-[…]-3′; Fusobacterium species reverse primer, 5′-[…]-3′; Fusobacterium species FAM probe, 5′-[…]-3′. […]

[4] = system: PDX tumors (COCA36), tumor cell proliferation; assay: In vivo BrdU incorporation assay (IHC) of PDX tumors; design: species or system nude mice (Nu/Nu); conditions: n=6 per arm, three weeks treatment vs vehicle, p=0.0015
Procedure: Bromodeoxyuridine (BrdUrd) solution (10 mg/mL, 0.2 mL/mouse) was administered via intraperitoneal injection 16 hours after the last dose of metronidazole or vehicle. After 2 additional hours, mice were sacrificed and tumors were fixed in 10% formalin for immunohistochemistry (IHC) analysis. A total of 6 animals per arm, that were treated with metronidazole or the vehicle for three weeks were randomly selected, over two independent trials, for BrdU incorporation analysis. IHC was performed on 4-μm sections of formalin-fixed paraffin-embedded samples. Tissue sections were deparaffinized and rehydrated, and antigen retrieval was performed in 10 mmol/L citrate buffer (pH 6.0) in a 750 W microwave oven at […] for 30 minutes for BrdU staining, BrdU primary antibody (BD Biosciences, #347580) was added at a dilution of 1:100 and incubated for 1 hour at room temperature. Sections were further processed with horseradish peroxidase-conjugated secondary antibody. The reaction was detected by 3,3-diaminobenzidine and hematoxylin staining. Images were obtained with an Olympus CX41 microscope and QCapture software (QImaging).

Fusobacterium nucleatum = assay: Pilot compound screen for inhibition of Fusobacterium growth (BacTiter Glow luminescence); format: cell-based; conditions: 32 μM, in duplicate, 48 hours anaerobic; hit cut-off 3 SD from mean of neutral controls
Procedure: FIG. 16 depicts determining threshold to identify inhibitor hits. Neutral Control=untreated F. nucleatum. Inhibitor Control=F. nucleatum treated with metronidazole. 3 SD from mean of neutral controls=−86% inhibition hit cut-off.
FIG. 17 depicts identifying compounds that inhibit Fusobacterium growth. […] 3 SD from mean of neutral controls=−86% inhibition hit cut-off. 34 inhibitory compounds identified.
A pilot screen containing 1,846 compounds (in duplicate), at [32 μM] was carried out. Approximately 1-2×10^6 Fusobacterium nucleatum cells/ml was seeded and incubated anaerobically for 48 hours. The read out was by the addition of BacTiter Glow and luminescence read out.
(§2) A method for determining the threshold to identify inhibitor hits was established and carried out (FIG. 16). […] Validation of inhibitor hits and related compounds was carried out and dose response was determined for 5-FU, carmofur, and tegafur (FIG. 18). Validation of inhibitor hits was also carried out with additional patient CRC isolates of Fusobacterium (FIG. 19). […] Applicants also investigated whether the presence of Fusobacterium in colorectal tumors can explain patient response to 5-FU-based therapies. Data of 91 patient colorectal adenocarcinoma tumors with recurrence were obtained by Fusobacterium culture and bacterial 16s rRNA sequencing analysis.

Fusobacterium species = conditions: cited from earlier work; for general susceptibility of the species: background statement on Fusobacterium
[5] = system: patient colorectal cancer isolates of Fusobacterium nucleatum and Fusobacterium necrophorum; assay: Validation with additional patient CRC isolates of Fusobacterium; format: cell-based; conditions: compared with plasma levels of treated patients (Takimoto et al. 1999)
Procedure: FIG. 19 depicts validation of with additional patient CRC isolates of Fusobacterium. […] (Takimoto et al., Clinical cancer research: an official journal of the American Association for Cancer Research 5, 1347-1352 (1999)).
as §2

[6] = system: Fusobacterium-positive colorectal tumors; assay: Recurrence/metastasis of patient colorectal adenocarcinoma tumors by Fusobacterium status and 5-FU treatment; conditions: 91 patient tumors with recurrence data; 43 patients treated with 5-FU or a 5-FU prodrug; p<0.05
Procedure: FIG. 20 illustrates a comparison between tumors treated with 5-FU or a 5-FU prodrug (right panel) and tumors with no treatment (left panel). A total of 91 patient colorectal adenocarcinoma tumors with recurrence data were analyzed by Fusobacterium culture and bacterial 16s rRNA sequencing.
as §2

[7] = during chemotherapy for adenocarcinoma of the small bowel; cited from earlier work
[8] = system: COCA36F3 F. nucleatum (colorectal cancer isolate); assay: Validation of inhibitor hits, dose response curves; format: cell-based, Fusobacterium nucleatum; conditions: 8-point, 2-fold dilutions, range 30-0.23 μM
Procedure: FIG. 18 depicts validation of inhibitor hits (and related compounds). […] Validation/dose plates: 8-point, 2-fold dilutions, range 30-0.23 μM. Dose Response Curves [0.32-30 μM]: COCA36F3 F. nucleatum (colorectal cancer isolate).
as §2

[9] = system: ETBF induced murine colonic tumors; conditions: DeStefano Shields et al. 2016; cited from earlier work
[10] = E-test on FAA agar, triplicate, test range 0.016 to 256 ug/ml, no bacterial growth at 0.016 ug/ml, read-out: MIC

MIC [1, 10]: < 0.016 µg/mL
MIC ([1]; F. nucleatum isolates from the PDX, read-out: minimum inhibitory concentration): < 0.016 µg/mL
Molecule: Cc1ncc([N+](=O)[O-])n1CCO [metronidazole]
in vitro antibiotic sensitivity (sensitive / resistant) ([1]; E-test on FAA agar, triplicate): sensitive
tumor growth (percentage tumor volume increase), Fusobacterium-positive PDX [2]: reduces tumor growth rate; also recorded: statistically significant decrease in tumor growth
tumor growth (percentage tumor volume increase), Fusobacterium-free HT-29 xenograft [3]: no significant decrease in tumor growth; also recorded: not statistically significant
Fusobacterium load in the tumor tissue (Fusobacterium): significant decrease in Fusobacterium load; also recorded: decreases Fusobacterium load
tumor cell proliferation (BrdU incorporation) [4]: reduces tumor growth rate and cancer cell proliferation; also recorded: significant reduction in tumor cell proliferation; also recorded: decreased cancer cell proliferation
inhibition of F. nucleatum growth in pilot screen (Fusobacterium nucleatum): significantly inhibit F. nucleatum growth
reported sensitivity of Fusobacteria (Fusobacterium species; Lofmark et al. 2010): highly sensitive

Molecule: penicillin
general susceptibility of the species (Fusobacterium species): susceptible

Molecule: CC[C@H]1OC(=O)[C@H](C)[C@@H](O[C@H]2C[C@@](C)(OC)[C@@H](O)[C@H](C)O2)[C@H](C)[C@@H](O[C@@H]2O[C@H](C)C[C@H](N(C)C)[C@H]2O)[C@](C)(O)C[C@@H](C)C(=O)[C@H](C)[C@@H](O)[C@]1(C)O [erythromycin]
general susceptibility of the species (Fusobacterium species): resistant

Molecule: O=c1[nH]cc(F)c(=O)[nH]1 [5-FU, 5-fluorouracil]
inhibition of F. nucleatum growth in pilot screen (Fusobacterium nucleatum): significantly inhibit F. nucleatum growth; also recorded: potent inhibitor of Fusobacterium growth
inhibition of Fusobacterium growth, patient CRC isolates [5]: inhibits Fusobacterium growth at levels comparable to achievable doses in plasma of treated patients; also recorded: potent inhibitors of Fusobacterium growth; also recorded: within a range comparable to patient plasma levels when receiving 5-fluorouracil infusion
inhibition of Fusobacterium growth, patient CRC isolates ([5]; listed as 5-Fluorouracil): inhibits Fusobacterium growth at levels comparable to achievable doses in plasma of treated patients
recurrence/metastasis of Fusobacterium-positive colorectal tumors [6]: less likely to develop recurrence/metastasis
cardiotoxicity [7]: associated with cardiotoxicity

Molecule: CCCCCCNC(=O)n1cc(F)c(=O)[nH]c1=O [carmofur]
inhibition of Fusobacterium growth, dose response validation [8]: even more potent in killing Fusobacterium than the active drug 5-FU
inhibition of Fusobacterium growth, dose response validation ([8]; listed as Carmofur): potent inhibitor of Fusobacterium growth

Molecule: O=C(N[C@H](CO)[C@H](O)c1ccc([N+](=O)[O-])cc1)C(Cl)Cl [chloramphenicol]
general susceptibility of the species (Fusobacterium species): susceptible

Molecule: CO[C@@]1(NC(=O)Cc2cccs2)C(=O)N2C(C(=O)O)=C(COC(N)=O)CS[C@@H]21 [cefoxitin]
in vitro antibiotic sensitivity (sensitive / resistant) ([1]; E-test on FAA agar, triplicate): sensitive
MIC [1, 10]: < 0.016 µg/mL
tumorigenesis in ETBF induced murine colonic tumors [9]: reduction in tumorigenesis
